Laboratory results taken from ChEMBL document CHEMBL6177981, “Bardoxolone Derivatives as Novel Pseudo-Natural Necroptosis Inhibitors by Destabilizing HSP90 Client Proteins” (J Med Chem, 2025).
Active and inactive are the calls of the source. The calls are words filed in the database; no cut-off is given here.

Experiments:
[1] = Acute toxicity in male C57BL/6J mouse assessed as effect on creatinine level at 2 g/Kg, IG measured after 72 hrs; settings: in vivo, po, 2000 mg/kg
HT-29 [2] = experiment: Downregulation of RIPK1 protein level in human HT-29 cells at 3 to 6 uM incubated for 9 hrs by Western blot analysis; format: functional, cell-based; settings: dose 3-6 µM
HeLa = experiment: Inhibition of MLKL protein expression in RIPK3-deficient human HeLa cells at 0.75 to 6 uM incubated for 9 hrs by Western blot analysis; format: functional, cell-based; settings: dose 0.75-6 µM
[3] = Cmax in Sprague-Dawley rat at 10 mg/kg, IG measured after 24 hrs by LC-MS/MS analysis; format: ADME, organism-based; settings: in vivo, po
[4] = Acute toxicity in male C57BL/6J mouse assessed as structural changes in kidney at 2 g/Kg, IG measured after 72 hrs by H and E staining based analysis; format: tissue-based; settings: in vivo, po, 2000 mg/kg
[5] = target: T1, Mixed lineage kinase domain-like protein (Homo sapiens) (UniProt Q8NB16); experiment: Inhibition of MLKL phosphorylation at S358 residue in TSZ-induced human HT-29 cells at 10 uM preincubated with compound followed by Z-VAD-FMK, SM164 and TNFalpha stimulation and measured after 6 hrs by Western blot analysis; format: cell-based
T1 sequence (whole entry): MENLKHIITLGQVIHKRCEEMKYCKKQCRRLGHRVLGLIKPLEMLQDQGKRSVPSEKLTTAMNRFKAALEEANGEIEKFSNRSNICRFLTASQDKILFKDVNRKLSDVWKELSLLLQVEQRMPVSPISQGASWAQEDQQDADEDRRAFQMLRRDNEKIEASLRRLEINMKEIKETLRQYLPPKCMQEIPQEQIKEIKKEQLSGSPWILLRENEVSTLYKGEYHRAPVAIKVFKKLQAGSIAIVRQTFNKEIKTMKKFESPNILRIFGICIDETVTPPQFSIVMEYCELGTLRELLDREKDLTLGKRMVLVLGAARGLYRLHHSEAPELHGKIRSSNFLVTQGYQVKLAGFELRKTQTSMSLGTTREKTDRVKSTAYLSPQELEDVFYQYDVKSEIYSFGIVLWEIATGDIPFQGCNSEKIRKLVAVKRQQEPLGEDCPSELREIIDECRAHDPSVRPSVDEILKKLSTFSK

L929 [6] = experiment: Anti-necroptotic activity in TZ-induced mouse L929 cells assessed as increase in cell viability preincubated with Z-VAD-FMK followed by mTNFalpha stimulation for 4 hrs and measured after compound addition by CellTiter-Lumi luminescent cell viability assay; format: functional, cell-based
L929 [7] = experiment: Anti-necroptotic activity in TZ-induced mouse L929 cells assessed as increase in cell viability preincubated with compound followed by Z-VAD-FMK and mTNFalpha stimulation and measured after 4 hrs by CellTiter-Lumi luminescent cell viability assay; format: functional, cell-based; settings: dose 0.625-10 µM
[8] = Acute toxicity in male C57BL/6J mouse assessed as hemorrhage in intestine at 2 g/Kg, IG measured after 72 hrs by H and E staining based analysis; format: tissue-based; settings: in vivo, po, 2000 mg/kg
[9] = Acute toxicity in male C57BL/6J mouse assessed as structural changes in spleen at 2 g/Kg, IG measured after 72 hrs by H and E staining based analysis; format: tissue-based; settings: in vivo, po, 2000 mg/kg
Mus musculus [10] = experiment: (§1) Anti-necroptotic activity in TNFalpha/Z-VAD-FMK induced SIRS male C57BL/6J mouse model assessed as reduction in IL6 in serum pre-administered orally with compound via gavage for 2 hrs followed by […] of Z-VAD-FMK stimulation for 15 mins with subsequent TNF-alpha stimulation for 1 hrs and re-current […] of Z-VAD-FMK stimulation and measured after 8 hrs post SIRS induction by ELISA; format: functional, organism-based; settings: dose 2.5-10 mg/kg, route po, time 10.0 hrs
[11] = Acute toxicity in male C57BL/6J mouse assessed as hemorrhage in heart at 2 g/Kg, IG measured after 72 hrs by H and E staining based analysis; format: tissue-based; settings: in vivo, po, 2000 mg/kg
HT-29 [12] = experiment: Downregulation of RIPK3 protein level in human HT-29 cell supernatant at 6 uM measured after 9 hrs by Western blot analysis; format: functional, cell-based
[13] = target: Receptor-interacting serine/threonine-protein kinase 3 (Homo sapiens) (UniProt Q9Y572); experiment: Inhibition of RIPK3 phosphorylation in TSZ-induced human HT-29 cells at 10 uM preincubated with compound followed by Z-VAD-FMK, SM164 and TNFalpha stimulation and measured within 6 hrs by Western blot analysis relative to control; format: cell-based
Sequence of Receptor-interacting serine/threonine-protein kinase 3 (Homo sapiens) (Q9Y572 whole entry, looked up): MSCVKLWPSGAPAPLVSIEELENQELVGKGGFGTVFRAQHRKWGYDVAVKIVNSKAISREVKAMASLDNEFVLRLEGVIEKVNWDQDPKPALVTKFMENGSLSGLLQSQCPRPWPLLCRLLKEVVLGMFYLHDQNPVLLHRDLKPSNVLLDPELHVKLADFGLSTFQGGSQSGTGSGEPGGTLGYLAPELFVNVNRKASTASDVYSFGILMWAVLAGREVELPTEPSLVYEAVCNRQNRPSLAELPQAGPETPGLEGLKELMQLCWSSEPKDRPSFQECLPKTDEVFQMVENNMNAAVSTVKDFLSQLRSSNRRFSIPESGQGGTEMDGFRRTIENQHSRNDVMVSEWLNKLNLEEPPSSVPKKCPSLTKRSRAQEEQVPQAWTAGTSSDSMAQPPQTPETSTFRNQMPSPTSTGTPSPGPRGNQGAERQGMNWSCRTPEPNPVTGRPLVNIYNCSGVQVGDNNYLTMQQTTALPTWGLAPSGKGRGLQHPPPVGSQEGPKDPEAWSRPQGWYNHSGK

HT-29 [14] = experiment: Downregulation of total RIPK3 protein level in TSZ-induced human HT-29 cells at 10 uM preincubated with compound followed by Z-VAD-FMK, SM164 and TNFalpha stimulation and measured after 6 hrs by Western blot analysis; format: functional, cell-based
Mus musculus [15] = experiment: as §1, with “survival rate at 10 mg/kg, po” for “reduction in IL6 in serum”, “pre-administered” for “pre-administered orally”, “relative to control” for “by ELISA”; format: functional; settings: time 10 hrs
Mus musculus [16] = experiment: as §1, with “protection from hypothermia at 2.5 to 10 mg/kg, po” for “reduction in IL6 in serum”, “pre-administered” for “pre-administered orally”, “induction” for “induction by ELISA”; format: functional, organism-based; settings: dose 2.5-10 mg/kg, time 10.0 hrs
HT-29 [17] = experiment: Anti-necroptotic activity in TCZ-induced human HT-29 cells assessed as increase in cell viability at 1.25 uM preincubated with compound followed by Z-VAD-FMK, cycloheximide and TNFalpha addition and measured after 16 hrs by CellTiter-Lumi luminescent cell viability assay relative to control; format: functional
[18] = Acute toxicity in male C57BL/6J mouse assessed as effect on ALT level at 2 g/Kg, IG measured after 72 hrs; settings: in vivo, po, 2000 mg/kg
[19] = Acute toxicity in male C57BL/6J mouse assessed as effect on urea level at 2 g/Kg, IG measured after 72 hrs; settings: in vivo, po, 2000 mg/kg
[20] = AUC (0 to 24 hrs) in Sprague-Dawley rat at 2 mg/kg, iv measured after 24 hrs by LC-MS/MS analysis; format: ADME, organism-based; settings: in vivo
HT-29 [21] = experiment: Downregulation of MLKL protein level in human HT-29 cells at 6 uM preincubated with Z-VAD-FMK for 2 hrs followed by compound addition and measured after 9 hrs by Western blot analysis; format: functional, cell-based
Mus musculus [22] = experiment: as §1, with “IL-1beta” for “IL6”, “kidney at 5 to 10 mg/kg, po” for “serum”, “pre-administered” for “pre-administered orally”; format: functional, organism-based; settings: dose 5-10 mg/kg, time 10.0 hrs

Cn1ccc(-c2ccc(NC(=O)[C@]34CCC(C)(C)C[C@H]3[C@H]3C(=O)C=C5[C@@]6(C)C=C(C#N)C(=O)C(C)(C)[C@@H]6CC[C@@]5(C)[C@]3(C)CC4)cc2)n1
Activity [1]: Non-toxic
Activity (HT-29 [2]): Active; Significant Effect Observed
inhibition (HeLa): Active
Cmax [3]: 65.1 ng/mL
Activity [4]: Non-toxic
inhibition [5]: Active
EC50 (L929 [6]): 4.12 µM
Activity (L929 [7]): Dose-dependent-effect
Activity [8]: Non-toxic
Activity [9]: Non-toxic
Activity (Mus musculus [10]): Dose-dependent-effect
Activity [11]: Non-toxic
Activity (HT-29 [12]): Active
inhibition [13]: 100%
Activity (HT-29 [14]): Active
survival at 10 mg/kg (Mus musculus [15]): 100%
Activity (Mus musculus [16]): Active
Activity (HT-29 [17]): 100%
Activity [18]: Non-toxic
Activity [19]: Non-toxic
AUC(0-t) at 24 h [20]: 4640 ng·h/mL
Activity (HT-29 [21]): Active
Activity (Mus musculus [22]): Active
